{"source": "patent US20240230638A9", "about": "“SMALL MOLECULE SCREENING ASSAY FOR DIGITAL MICROFLUIDIC PLATFORM” (NICOYA LIFESCIENCES, INC., priority 2021, published 2024)", "origin": "cited, not measured here", "data": [{"details": "measure of hydrophobicity, literature values", "values": [{"smiles": "NS(=O)(=O)c1ccccc1", "note": "[Benzenesulfonamide]", "octanol-water partitioning coefficients (logKow)": 0.31}, {"smiles": "CC(C)/N=c1\\cc2n(-c3ccc(Cl)cc3)c3ccccc3nc-2cc1Nc1ccc(Cl)cc1", "note": "[Clofazimine]", "octanol-water partitioning coefficients (logKow)": 6.3}, {"smiles": "O=C(O)c1ccccc1Nc1cccc(C(F)(F)F)c1", "note": "[Flufenamic acid]", "octanol-water partitioning coefficients (logKow)": 5.19}, {"smiles": "CC(C)Cc1ccc(C(C)C(=O)O)cc1", "note": "(stereo not shown) [Ibuprofen]", "octanol-water partitioning coefficients (logKow)": 3.97}]}]}
